Test [1] has as its system SW620 colorectal tumor cells (xenograft tumors). The test can be described thus: In vivo antitumor efficacy in combination with temozolomide (TMZ) in an SW620 tumor model. The arrangement: species or system Female athymic nude mice. The following applies: for Tumor growth delay: time to RTV4 treated minus control. As to the method:
On basis of the in vitro data, the ability of selected compounds to potentiate the antitumor activity of the methylating chemotherapeutic agent, temozolomide, was evaluated in an SW 620 tumor model.
Animals bearing SW 620 xenograft tumors were treated with the compounds in combination with TMZ (50 mg/Kg, po) once daily for 5 consecutive days, after which the tumors were left to grow out.
Female athymic nude mice were used for antitumor in vivo studies. SW620 colorectal tumor cells (1×10^7 cells per animal) were implanted s.c. into one flank of each mouse. When tumors were palpable (10-12 days after implantation), animals were treated (n=6-8/group) with five daily doses of temozolomide administered per os as a suspension in 0.5% methyl cellulose at 50 mg/kg either alone or in combination with a five daily per os administrations of PARP inhibitor at different doses. Tumor growths were measured using two-dimensional caliper measurements. Tumor volume was calculated using the equation a^2×b/2, where a is the smallest measurement and b is the largest. Data are presented as median relative tumor volumes (RTV), defined as the calculated tumor volume divided by the calculated tumor volume on the initial day of treatment (day 0). Thus, on day 0, the RTV value is 1 and RTV4 is when the tumor is four times as large as its initial value. Control animals were treated with vehicle ([…] in methyl cellulose) alone tumor growth delay (TGD)=Time to RTV4 in treated group−time to RTV4 control.

The target of the next test is T1, PARP-1 (Homo sapiens, UniProt P09874).
T1 construct: purchased Trevigen
T1 sequence (P09874 whole entry): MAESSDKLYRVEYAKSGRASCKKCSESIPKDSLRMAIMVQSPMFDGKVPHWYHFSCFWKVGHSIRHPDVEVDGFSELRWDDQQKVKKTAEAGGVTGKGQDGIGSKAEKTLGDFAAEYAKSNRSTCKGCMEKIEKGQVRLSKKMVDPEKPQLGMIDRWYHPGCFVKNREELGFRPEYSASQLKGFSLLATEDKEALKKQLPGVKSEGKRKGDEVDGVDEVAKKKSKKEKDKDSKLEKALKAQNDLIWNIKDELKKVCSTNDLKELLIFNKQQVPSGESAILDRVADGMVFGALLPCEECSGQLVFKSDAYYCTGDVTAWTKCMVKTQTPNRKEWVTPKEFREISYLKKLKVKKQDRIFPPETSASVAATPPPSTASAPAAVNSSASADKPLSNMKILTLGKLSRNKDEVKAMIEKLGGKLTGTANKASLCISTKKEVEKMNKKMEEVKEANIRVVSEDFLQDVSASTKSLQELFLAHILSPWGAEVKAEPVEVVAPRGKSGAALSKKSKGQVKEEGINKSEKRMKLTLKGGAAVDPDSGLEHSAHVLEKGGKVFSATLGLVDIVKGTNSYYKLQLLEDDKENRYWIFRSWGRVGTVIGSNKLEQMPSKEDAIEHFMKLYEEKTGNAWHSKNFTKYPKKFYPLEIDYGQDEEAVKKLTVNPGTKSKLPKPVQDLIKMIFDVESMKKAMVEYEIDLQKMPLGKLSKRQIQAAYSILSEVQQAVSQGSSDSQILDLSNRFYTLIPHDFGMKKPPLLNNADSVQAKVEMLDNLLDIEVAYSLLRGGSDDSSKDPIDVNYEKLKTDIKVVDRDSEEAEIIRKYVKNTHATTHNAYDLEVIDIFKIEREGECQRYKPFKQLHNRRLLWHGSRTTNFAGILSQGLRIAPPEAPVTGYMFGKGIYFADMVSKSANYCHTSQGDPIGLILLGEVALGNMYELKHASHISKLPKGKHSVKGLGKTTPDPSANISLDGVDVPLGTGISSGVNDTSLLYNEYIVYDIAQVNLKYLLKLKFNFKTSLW
Briefly: PARP-1 inhibitory activity, HT universal colorimetric PARP assay kit (Trevigen). The conditions noted are these: estimation as calculated from a 4 point dose response curve; read-out: PARP-1 activity in vitro IC50. The test is classed as biochemical. As for the experimental part: The compounds were tested for PARP-1 inhibitory activity by using HT universal colorimetric PARP assay kit obtained from Trevigen, following manufacturer's protocol.

[2] abbreviates: compound 10 mg/kg, po + TMZ 50 mg/kg, once daily for 5 days, compound 45 min before TMZ.
The mark [3] stands for this setting: compound 10 mg/kg, po + TMZ 50 mg/kg, once daily for 5 days.

As for `O=C(c1cc(Cc2n[nH]c(=O)c3ccccc23)ccc1F)N1Cc2cocc2C1` [Compound 20, 4-(3-(5,6-dihydro-4H-furo[3,4-c]pyrrole-5-carbonyl)-4-fluorobenzyl)phthalazin-1(2H)-one], the “Median time to RTV4” value in test [1] (compound 50 mg/kg, po + TMZ 50 mg/kg, once daily for 5 days, compound 45 min before TMZ) is given as 43 days. Moreover, the “Tumor growth delay” value in test [1] (compound 50 mg/kg, po + TMZ 50 mg/kg, once daily for 5 days) came to 33 days. Moreover, at PARP-1, the IC50 was 11.8 nM.
With `Cn1cc2c(n1)CN(C(=O)c1cc(Cc3n[nH]c(=O)c4ccccc34)ccc1F)C2` [Compound 35, 4-(4-fluoro-3-(2-methyl-2,4,5,6-tetrahydropyrrolo[3,4-c]pyrazole-5-carbonyl)benzyl) phthalazin-1(2H)-one], the “Median time to RTV4” value in test [1] (setting [2]) stood at 50 days. Besides, the “Tumor growth delay” value in test [1] (setting [3]) is listed as 40 days. Besides, the IC50 at PARP-1 is 29.9 nM.
Consider `Cn1ncc2c1CN(C(=O)c1cc(Cc3n[nH]c(=O)c4ccccc34)ccc1F)C2` [Compound 36], for which the “Median time to RTV4” value in test [1] (setting [2]) is 37 days; in test [1] (compound 30 mg/kg, po + TMZ 50 mg/kg, once daily for 5 days, compound 45 min before TMZ), 44 days; in test [1] (compound 100 mg/kg, po + TMZ 50 mg/kg, once daily for 5 days, compound 45 min before TMZ), 65 days. Also, the “Tumor growth delay” value in test [1] (setting [3]) was found to be 27 days; in test [1] (compound 30 mg/kg, po + TMZ 50 mg/kg, once daily for 5 days) it was 34 days; in test [1] (compound 100 mg/kg, po + TMZ 50 mg/kg, once daily for 5 days) it was 55 days. The IC50 on PARP-1 was 27.9 nM.
For `Cn1nnc2c(C(N)=O)ncn2c1=O` [Temozolomide, reference compound], in test [1] (Temozolomide alone 50 mg/kg, po, once daily for 5 consecutive days), the “Median time to RTV4” value amounted to 22 days. For the same compound, the “Tumor growth delay” value in test [1] (Temozolomide alone 50 mg/kg, po, once daily for 5 days) is given as 12 days.

The values are drawn from patent publication US9598418B2, “Substituted phthalazin-1 (2H)-one derivatives as selective inhibitors of poly (ADP-ribose) polymerase-1” (CADILA HEALTHCARE LIMITED, priority 2012, dated 2017).
